Assay results from patent US20220241260A9, “Pharmaceutical Compositions Of Metabotropic Glutamate 5 Receptor (MGLU5) Antagonists” (F. HOFFMANN-LA ROCHE AG, priority 2010, published 2022).

Assay: BCS classification
Type: physicochemical
Conditions: because of pH dependent solubility in physiological range

Cc1nc(C#Cc2ccnc(Cl)c2)c(C)n1-c1ccc(F)cc1 [2-Chloro-4-[1-(4-fluoro-phenyl)-2,5-dimethyl-1H-imidazol-4-ylethynyl]-pyridine]
BCS class: BCS class 2
